This is an account of results in ChEMBL document CHEMBL5252585, “Structure optimization and discovery of novel compound for the treatment of insertion mutations within exon 20 of EGFR and HER2” (Bioorg Med Chem, 2023).

Series [1] is described as follows: Cmax in Sprague-Dawley rat at 10 mg/kg, po measured upto 8 hrs by LC-MS/MS analysis. The format is ADME, organism-based. On the set-up: dose 10 mg/kg, time < 8 hrs, route po. As to conditions: in vivo.
In series [2] the test system is BaF3. Kind of series: In vivo inhibition of EGFR D770-N771 ins NPG mutant in BALB/c mouse implanted with mouse BaF3 cells assessed as reduction in EGFR phosphorylation at 10 to 20 mg/kg, po administered once daily for 13 to 14 days by Western blot analysis. The class given is functional, organism-based. As to conditions: dose 10-20 mg/kg, time 13-14 day. For orientation: Immunoblotting shows a protein as a band on a membrane.

For series [3], the target named is Receptor tyrosine-protein kinase erbB-4 (Homo sapiens) (UniProt Q15303). As to conditions: dose 500.0 nM.
Chain of Receptor tyrosine-protein kinase erbB-4 (Homo sapiens) (Q15303 whole entry): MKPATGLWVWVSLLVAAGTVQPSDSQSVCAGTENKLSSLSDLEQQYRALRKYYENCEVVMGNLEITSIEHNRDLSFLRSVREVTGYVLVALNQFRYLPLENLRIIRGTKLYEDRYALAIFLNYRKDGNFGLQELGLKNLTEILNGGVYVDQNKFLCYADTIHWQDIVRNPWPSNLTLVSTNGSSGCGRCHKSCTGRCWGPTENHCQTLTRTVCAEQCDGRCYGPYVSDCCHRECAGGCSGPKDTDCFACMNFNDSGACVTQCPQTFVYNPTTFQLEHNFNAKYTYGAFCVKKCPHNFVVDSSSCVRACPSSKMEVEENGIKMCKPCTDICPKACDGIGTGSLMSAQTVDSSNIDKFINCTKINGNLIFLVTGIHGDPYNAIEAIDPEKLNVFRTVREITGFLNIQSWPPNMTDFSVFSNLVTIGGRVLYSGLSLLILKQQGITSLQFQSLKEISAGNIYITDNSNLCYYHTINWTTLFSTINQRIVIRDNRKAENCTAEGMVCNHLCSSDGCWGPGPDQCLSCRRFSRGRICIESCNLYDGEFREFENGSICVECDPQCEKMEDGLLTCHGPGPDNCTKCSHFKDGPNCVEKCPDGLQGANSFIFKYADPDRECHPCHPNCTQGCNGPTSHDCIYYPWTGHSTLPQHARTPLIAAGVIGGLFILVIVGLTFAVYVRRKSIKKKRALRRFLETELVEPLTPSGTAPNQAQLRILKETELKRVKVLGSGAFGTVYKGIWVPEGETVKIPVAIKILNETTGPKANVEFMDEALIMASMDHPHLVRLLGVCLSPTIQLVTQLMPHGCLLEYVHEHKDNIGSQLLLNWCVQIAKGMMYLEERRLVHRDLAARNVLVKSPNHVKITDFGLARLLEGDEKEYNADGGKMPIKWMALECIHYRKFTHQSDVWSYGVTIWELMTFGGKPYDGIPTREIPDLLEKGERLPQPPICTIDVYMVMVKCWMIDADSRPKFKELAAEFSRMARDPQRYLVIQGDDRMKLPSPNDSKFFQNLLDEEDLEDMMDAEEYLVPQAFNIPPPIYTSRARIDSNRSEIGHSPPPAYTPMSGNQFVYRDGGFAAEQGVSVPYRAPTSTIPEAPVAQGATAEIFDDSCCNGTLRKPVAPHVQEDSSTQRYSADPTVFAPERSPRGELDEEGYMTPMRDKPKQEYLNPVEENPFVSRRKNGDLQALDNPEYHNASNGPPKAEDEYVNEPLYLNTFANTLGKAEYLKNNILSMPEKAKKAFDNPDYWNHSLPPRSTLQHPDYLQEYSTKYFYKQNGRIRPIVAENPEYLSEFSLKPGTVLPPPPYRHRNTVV
Description: Inhibition of HER4 (unknown origin) at 500 nM relative to control
Series [4] concerns BaF3. Briefly: Inhibition of EGFR D770-N771 ins NPG mutant in mouse BaF3 cells assessed as reduction in EGFR phosphorylation at less than 1 nM incubated for 24 hrs by Western blot analysis. The format is cell-based.
Series [5] has as its system BaF3. Kind of series: Antiproliferative activity against mouse BAF3 cells harboring FL-EGFR D770-N771 ins NPG mutant after 72 hrs by celltiter-Glo luminescence assay. The format is functional, cell-based. As to conditions: BaF3, 72 h.
A short description of series [6]: Toxicity in BALB/c mouse harboring HER2-A775-G776 ins YVMA mutant implanted with mouse BaF3 cells assessed as change in body weight at 10 to 20 mg/kg, po administered once daily for 13 to 14 days. The format is organism-based. As to conditions: in vivo, dose lower 10 mg/kg, time lower 13 day, dose upper 20 mg/kg, time upper 14 day.
Series [7] in a line: Half life in Sprague-Dawley rat at 10 mg/kg, iv measured upto 8 hrs by LC-MS/MS analysis. The class given is ADME, organism-based. To be noted: in vivo.
Series [8] in a line: Clearance in Sprague-Dawley rat at 10 mg/kg, po measured upto 8 hrs by LC-MS/MS analysis. The class given is ADME, organism-based. To be noted: in vivo.
The nature of series [9]: Mean residence time in Sprague-Dawley rat at 10 mg/kg, po measured upto 8 hrs by LC-MS/MS analysis. The class given is ADME, organism-based. To be noted: in vivo.
Series [10] relates to BaF3. Kind of series: In vivo inhibition of HER2-A775-G776 ins YVMA mutant in BALB/c mouse implanted with mouse BaF3 cells assessed as reduction in HER2 phosphorylation at 10 to 20 mg/kg, po administered once daily for 13 to 14 days by Western blot analysis. The format is functional, organism-based. As to conditions: dose 10-20 mg/kg, time 13-14 day.
A short description of series [11]: Half life in Sprague-Dawley rat at 10 mg/kg, po measured upto 8 hrs by LC-MS/MS analysis. The class given is ADME, organism-based. As to conditions: in vivo.
Series [12] is described as follows: Mean residence time in Sprague-Dawley rat at 10 mg/kg, iv measured upto 8 hrs by LC-MS/MS analysis. As to conditions: in vivo. The format is ADME, organism-based.
The subject of series [13] is BaF3. Kind of series: Antitumor activity against mouse BaF3 cells implanted in BALB/c mouse harboring HER2-A775-G776 ins YVMA mutant assessed as tumor growth inhibition at 10 mg/kg, po administered once daily for 13 to 14 days. The format is functional. To be noted: time 13-14 day, read-out: TGI.
The target in series [14] is T1, Ephrin type-A receptor 6 (Homo sapiens) (UniProt Q9UF33).
T1 sequence (whole entry): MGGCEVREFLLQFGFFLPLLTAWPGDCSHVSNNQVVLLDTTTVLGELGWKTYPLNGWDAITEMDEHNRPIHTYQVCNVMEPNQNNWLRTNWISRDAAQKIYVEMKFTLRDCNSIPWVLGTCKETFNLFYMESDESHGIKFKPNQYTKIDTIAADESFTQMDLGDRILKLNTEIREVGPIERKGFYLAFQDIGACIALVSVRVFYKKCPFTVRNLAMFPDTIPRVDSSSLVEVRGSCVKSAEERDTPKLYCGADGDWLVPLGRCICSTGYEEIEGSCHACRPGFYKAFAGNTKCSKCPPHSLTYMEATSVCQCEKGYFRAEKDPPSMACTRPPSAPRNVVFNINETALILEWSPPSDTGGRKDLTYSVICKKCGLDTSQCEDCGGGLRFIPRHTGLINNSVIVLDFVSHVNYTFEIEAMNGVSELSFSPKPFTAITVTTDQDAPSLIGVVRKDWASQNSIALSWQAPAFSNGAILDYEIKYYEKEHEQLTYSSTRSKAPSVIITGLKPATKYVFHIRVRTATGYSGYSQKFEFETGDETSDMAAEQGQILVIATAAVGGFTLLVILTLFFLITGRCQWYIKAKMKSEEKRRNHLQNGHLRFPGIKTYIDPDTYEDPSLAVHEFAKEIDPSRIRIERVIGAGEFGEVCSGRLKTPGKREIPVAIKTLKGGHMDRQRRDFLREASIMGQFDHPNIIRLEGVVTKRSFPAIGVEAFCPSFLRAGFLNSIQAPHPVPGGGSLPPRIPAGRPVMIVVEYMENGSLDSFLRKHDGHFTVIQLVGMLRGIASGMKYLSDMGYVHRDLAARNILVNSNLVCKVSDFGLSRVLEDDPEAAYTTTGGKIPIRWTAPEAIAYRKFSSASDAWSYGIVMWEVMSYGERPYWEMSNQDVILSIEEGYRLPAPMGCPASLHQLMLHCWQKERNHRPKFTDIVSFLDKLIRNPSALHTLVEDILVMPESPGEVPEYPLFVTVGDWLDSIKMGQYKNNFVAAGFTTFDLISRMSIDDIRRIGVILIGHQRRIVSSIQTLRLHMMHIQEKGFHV
Briefly: Inhibition of EPHA6 (unknown origin) at 500 nM relative to control.

Series [15] addresses T2, Tyrosine-protein kinase Tec (Homo sapiens) (UniProt P42680).
T2 sequence (whole entry): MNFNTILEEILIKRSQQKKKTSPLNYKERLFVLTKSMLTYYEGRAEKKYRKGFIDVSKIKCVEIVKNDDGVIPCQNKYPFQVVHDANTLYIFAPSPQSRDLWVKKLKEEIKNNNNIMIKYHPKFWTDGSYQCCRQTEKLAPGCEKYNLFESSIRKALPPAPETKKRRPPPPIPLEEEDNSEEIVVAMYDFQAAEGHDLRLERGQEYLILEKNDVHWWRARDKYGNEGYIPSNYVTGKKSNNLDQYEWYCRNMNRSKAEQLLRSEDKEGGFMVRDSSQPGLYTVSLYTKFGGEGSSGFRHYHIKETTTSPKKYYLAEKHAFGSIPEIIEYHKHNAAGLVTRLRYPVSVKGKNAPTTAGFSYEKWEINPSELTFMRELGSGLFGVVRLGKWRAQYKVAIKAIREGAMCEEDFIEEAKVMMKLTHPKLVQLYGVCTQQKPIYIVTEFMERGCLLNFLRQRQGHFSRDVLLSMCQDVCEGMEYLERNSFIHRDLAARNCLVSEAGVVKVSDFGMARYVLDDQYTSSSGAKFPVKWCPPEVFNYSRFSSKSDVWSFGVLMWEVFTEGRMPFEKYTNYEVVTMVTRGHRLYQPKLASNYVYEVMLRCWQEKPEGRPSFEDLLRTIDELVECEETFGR
Kind of series: Inhibition of TEC (unknown origin) at 500 nM relative to control.

Series [16] in a line: AUC(0 to t) in Sprague-Dawley rat at 10 mg/kg, po measured upto 8 hrs by LC-MS/MS analysis. The format is ADME, organism-based. Details: dose 10 mg/kg, time < 8 hrs, route po. To be noted: in vivo.
The target in series [17] is Receptor tyrosine-protein kinase erbB-2 (Homo sapiens, UniProt P04626). As to conditions: dose 500.0 nM.
Chain of Receptor tyrosine-protein kinase erbB-2 (P04626 whole entry): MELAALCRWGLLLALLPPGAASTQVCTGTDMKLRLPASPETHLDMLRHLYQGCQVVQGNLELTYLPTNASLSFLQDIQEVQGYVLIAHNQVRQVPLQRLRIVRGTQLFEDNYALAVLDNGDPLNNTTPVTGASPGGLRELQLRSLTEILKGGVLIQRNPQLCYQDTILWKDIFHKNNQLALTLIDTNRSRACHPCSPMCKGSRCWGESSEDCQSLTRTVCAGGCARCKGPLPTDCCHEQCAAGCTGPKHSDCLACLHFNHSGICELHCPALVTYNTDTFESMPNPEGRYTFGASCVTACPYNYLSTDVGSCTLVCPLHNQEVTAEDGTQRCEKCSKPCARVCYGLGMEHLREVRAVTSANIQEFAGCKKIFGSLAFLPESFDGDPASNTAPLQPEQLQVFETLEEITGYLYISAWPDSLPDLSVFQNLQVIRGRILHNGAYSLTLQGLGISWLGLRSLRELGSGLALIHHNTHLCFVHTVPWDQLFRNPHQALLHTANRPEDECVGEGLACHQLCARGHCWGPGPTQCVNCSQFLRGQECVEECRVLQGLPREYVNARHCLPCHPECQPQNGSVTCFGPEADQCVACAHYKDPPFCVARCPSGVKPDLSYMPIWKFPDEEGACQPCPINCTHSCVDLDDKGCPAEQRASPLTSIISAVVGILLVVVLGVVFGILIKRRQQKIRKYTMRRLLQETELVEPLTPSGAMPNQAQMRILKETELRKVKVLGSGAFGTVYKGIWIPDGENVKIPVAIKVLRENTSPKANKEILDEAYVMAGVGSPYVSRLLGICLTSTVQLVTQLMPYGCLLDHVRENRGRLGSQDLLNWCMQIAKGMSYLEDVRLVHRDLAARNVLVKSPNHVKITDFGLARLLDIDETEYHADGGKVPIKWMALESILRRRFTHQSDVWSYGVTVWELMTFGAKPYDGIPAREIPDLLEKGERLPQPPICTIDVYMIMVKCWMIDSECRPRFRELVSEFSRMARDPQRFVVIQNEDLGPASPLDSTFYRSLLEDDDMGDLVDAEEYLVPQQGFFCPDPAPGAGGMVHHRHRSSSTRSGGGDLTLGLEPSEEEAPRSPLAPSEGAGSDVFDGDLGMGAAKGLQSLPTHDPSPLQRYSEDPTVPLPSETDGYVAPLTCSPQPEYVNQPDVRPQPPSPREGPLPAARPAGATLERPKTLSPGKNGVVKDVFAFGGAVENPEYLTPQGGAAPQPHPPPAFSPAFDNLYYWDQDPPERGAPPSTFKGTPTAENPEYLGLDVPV
Description: Inhibition of HER2 (unknown origin) at 500 nM relative to control
The target in series [18] is Tyrosine-protein kinase Blk (Homo sapiens) (UniProt P51451). Kind of series: Inhibition of BLK (unknown origin) at 500 nM relative to control.
Chain of Tyrosine-protein kinase Blk (Homo sapiens) (P51451 2-505 limits assumed): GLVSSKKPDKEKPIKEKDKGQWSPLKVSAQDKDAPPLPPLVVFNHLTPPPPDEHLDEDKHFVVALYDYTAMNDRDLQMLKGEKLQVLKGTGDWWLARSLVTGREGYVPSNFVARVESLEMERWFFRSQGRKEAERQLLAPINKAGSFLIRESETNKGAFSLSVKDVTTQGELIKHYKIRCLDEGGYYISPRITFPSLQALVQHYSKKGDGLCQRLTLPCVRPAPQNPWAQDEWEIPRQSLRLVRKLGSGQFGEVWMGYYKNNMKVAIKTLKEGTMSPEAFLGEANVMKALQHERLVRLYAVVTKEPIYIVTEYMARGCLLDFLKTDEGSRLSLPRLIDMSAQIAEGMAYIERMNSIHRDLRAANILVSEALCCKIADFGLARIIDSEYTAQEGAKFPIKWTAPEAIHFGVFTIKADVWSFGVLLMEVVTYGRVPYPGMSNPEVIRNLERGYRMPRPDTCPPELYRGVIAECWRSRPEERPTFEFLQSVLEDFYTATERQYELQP

Active and inactive are the calls of the source. The calls are words filed in the database; no cut-off is given here.

By Cmax is commonly meant the maximum level reached in the sampled fluid or tissue. A word on the inhibition: it is the change of the read-out against control, counted positive when it falls. For orientation: IC50 means the midpoint of a concentration-inhibition curve. Read a high IC50 as lower potency. The term half-life denotes the time in which the quantity being followed falls by half. A lower half-life goes with fast loss. As a reminder, the CL/F is clearance divided by bioavailability, as obtained after extravascular dosing. By MRT is commonly meant the average time that molecules of a dose stay in the body. Broadly, the AUC(0-t) is the area under the concentration-time curve up to a stated or last time point. High values mean high exposure, low ones low exposure.

As for `C=CC(=O)N1CCC(Oc2cc3c(Nc4cccc(Cl)c4F)ncnc3cc2O[C@H]2CCOC2)CC1`, the peak level in series [1] (Cmax) was 1690 ng/mL. Further, the inhibition entry in the series on BaF3 [2], in the series with BaF3 [4] and with BaF3 [10] was “Active” each time. For the same molecule, the inhibition is 100% in series [3]; over 20% in series [14]; over 20% in series [15]; 100% in series [17]; over 20% in series [18]. The molecule also returned an IC50 in the series on BaF3 [5] of 0.79 nM. Also, the Activity entry in series [6] is on record as “Non-Toxic”. Moreover, the half-life in series [7] was 0.89 h; in series [11], 6.93 h. This molecule also showed an apparent clearance (CL/F) in [8] of 2.96 mL/min. Further, the results for the MRT in series [9] and in [12] were 3.58 h and 1.89 h, respectively. In the series with BaF3 [13], the inhibition in vivo at 10 mg/kg was found to be 75%. In series [16], this molecule returned an AUC(0-t) at 8 h of 9500 ng·h/mL.
